Experimental data reported in PubChem BioAssay AID504627 (NMMLSC, 2011).
Activity calls are given as the source filed them.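 How the source made its calls: active means polarization drop versus untreated control wells larger than 25 mP; inactive means the rest.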

Assays:
Assay in all cases: Bcl-2 family protein peptide binding inhibitors, dose response, biochemical, fluorescence polarization, powder compounds set 1, panel (AID 504627)
[1] = target: Apoptosis regulator Bcl-2 (Homo sapiens) (UniProt P10415); conditions: GST-Bcl-2 family protein, FITC-peptide fluorescence polarization, Bcl2; for polarization signal (mP), lower = inhibition: at 50 µM (top of the series)
Apoptosis regulator Bcl-2 (Homo sapiens), sequence (P10415 whole entry, looked up): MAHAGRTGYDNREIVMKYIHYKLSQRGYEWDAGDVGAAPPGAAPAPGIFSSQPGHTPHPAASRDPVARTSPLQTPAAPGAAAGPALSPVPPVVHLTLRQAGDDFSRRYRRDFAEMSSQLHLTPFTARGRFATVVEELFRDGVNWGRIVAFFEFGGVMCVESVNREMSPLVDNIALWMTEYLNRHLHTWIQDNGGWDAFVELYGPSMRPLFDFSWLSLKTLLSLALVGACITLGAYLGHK

[2] = target: Bcl-2-like protein 1 (Homo sapiens) (UniProt Q07817); conditions: GST-Bcl-2 family protein, FITC-peptide fluorescence polarization, BclXL; for polarization signal (mP), lower = inhibition: at 50 µM (top of the series)
Bcl-2-like protein 1 (Homo sapiens), sequence (Q07817 whole entry, looked up): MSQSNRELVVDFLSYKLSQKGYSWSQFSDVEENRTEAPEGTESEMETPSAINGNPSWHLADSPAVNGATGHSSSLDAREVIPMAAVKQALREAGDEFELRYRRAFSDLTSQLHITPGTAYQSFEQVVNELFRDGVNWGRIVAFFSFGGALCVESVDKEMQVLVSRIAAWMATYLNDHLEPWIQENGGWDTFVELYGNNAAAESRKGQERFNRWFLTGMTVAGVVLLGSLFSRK

[3] = target: Bcl-2-like protein 10 (Homo sapiens) (UniProt Q9HD36); conditions: GST-Bcl-2 family protein, FITC-peptide fluorescence polarization, BclB; for polarization signal (mP), lower = inhibition: at 50 µM (top of the series)
Bcl-2-like protein 10 (Homo sapiens), sequence (Q9HD36 whole entry, looked up): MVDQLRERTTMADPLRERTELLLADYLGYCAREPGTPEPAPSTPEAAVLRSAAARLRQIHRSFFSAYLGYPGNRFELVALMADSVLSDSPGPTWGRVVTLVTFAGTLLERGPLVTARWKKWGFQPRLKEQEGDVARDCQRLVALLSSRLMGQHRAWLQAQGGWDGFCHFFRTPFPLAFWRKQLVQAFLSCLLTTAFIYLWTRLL

[4] = target: Bcl-2-related protein A1 (Homo sapiens) (UniProt Q16548); conditions: GST-Bcl-2 family protein, FITC-peptide fluorescence polarization, Bfl1; for polarization signal (mP), lower = inhibition: at 50 µM (top of the series)
Bcl-2-related protein A1 (Homo sapiens), sequence (Q16548 whole entry, looked up): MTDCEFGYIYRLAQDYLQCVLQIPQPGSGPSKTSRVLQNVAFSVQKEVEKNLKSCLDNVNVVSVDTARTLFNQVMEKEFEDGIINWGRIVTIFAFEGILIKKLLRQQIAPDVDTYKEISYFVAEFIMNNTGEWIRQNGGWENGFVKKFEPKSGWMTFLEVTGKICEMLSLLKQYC

Compound | IC50 [1] | IC50 [2] | IC50 [3] | IC50 [4] | polarization signal (mP), lower = inhibition [1] | polarization signal (mP), lower = inhibition [2] | polarization signal (mP), lower = inhibition [3] | polarization signal (mP), lower = inhibition [4]
O=C1C(Cl)=C(N2CCN(c3ccccc3[N+](=O)[O-])CC2)C(=O)c2ccccc21 | 5.64 µM | 4.4 µM | 3.99 µM | 2.73 µM |  |  |  | 
Cc1ccc(-c2cc(-c3ccc(C)o3)nc(N)c2C#N)cc1 |  |  |  |  | inactive | inactive | inactive | inactive
Cc1ccc(-c2cc(-c3ccc(F)cc3)c(C#N)c(N)n2)o1 |  |  |  |  | inactive | inactive | inactive | inactive
Cc1cc(-c2cc(-c3ccc(Cl)cc3)nc(N)c2C#N)co1 |  |  |  |  | inactive | inactive | inactive | inactive
Oc1ccc(NCc2ccccc2OCc2ccccc2)cc1 |  |  |  |  | inactive | inactive | inactive | inactive
O=c1c2c(n3nnnc3n1Cc1ccccc1)-c1ccccc1CC21CCCC1 |  |  | 1.13 µM |  | inactive | inactive |  | inactive
O=C1NC(=O)C2(Cc3c(nc4ccccn4c3=O)N3CCCCCC32)C(=O)N1Cc1ccccc1 (stereo not given) |  |  | 1.16 µM |  | inactive | inactive |  | inactive
COc1ccccc1-n1c(-c2ccccc2)c[nH]c1=S |  |  |  |  | inactive | inactive | inactive | inactive
CNC(CC(=O)c1ccc([N+](=O)[O-])cc1)C(Cl)(Cl)Cl (stereo not given) |  |  |  |  | inactive | inactive | inactive | inactive
Cc1ccc(C=NNC(=O)CSc2nnc(-c3ccc(Cl)cc3)n2-c2ccccc2)o1 |  |  | 8.58 µM |  | inactive | inactive |  | inactive
